Assay results taken from patent US9796686B2, “Antibacterial quinazoline-4(3H)-one derivatives” (priority 2014, dated 2017).
In brackets after ≈: the same amount, converted by molar mass. Where a name gives a salt, the structure may show the parent alone. Read-outs that look alike come from different tables or passages of the source.

Assays:
Experiment in all cases: Bacterial growth minimal inhibitory concentration, microdilution in cation-adjusted Mueller-Hinton Broth (CLSI M7-A7)
Format in all cases: cell-based
K. pneumoniae A-651 = details: for MIC: Klebsiella pneumoniae
Description: (§1) Minimal Inhibitory Concentrations (MICs; mg/L) were determined in cation-adjusted Mueller-Hinton Broth by a microdilution method following the description given in “Methods for Dilution Antimicrobial Susceptibility Tests for Bacteria that Grow Aerobically”, Approved standard, 7th ed., Clinical and Laboratory Standards Institute (CLSI) Document M7-A7, Wayne, Pa., U.S.A. (2006).
(§2) All Example compounds were tested against several Gram-positive and Gram-negative bacteria. […] K. pneumoniae A-651 is a multiply-resistant strain (in particular quinolone-resistant), while E. coli ATCC25922 and P. aeruginosa ATCC27853 are quinolone-sensitive strains.

E. coli ATCC25922 = details: for MIC: Escherichia coli
Description: as §1, §2

P. aeruginosa ATCC27853 = details: for MIC: Pseudomonas aeruginosa
Description: as §1, §2

[1] = A651, multiply-resistant strain (in particular quinolone-resistant), read-out: MIC for K. Pneumoniae A-651
[2] = ATCC25922, quinolone-sensitive strain, read-out: MIC for E. coli ATCC25922
[3] = ATCC27853, quinolone-sensitive strain, read-out: MIC for P. aeruginosa ATCC27853
[4] = multiply-resistant strain (in particular quinolone-resistant)

| Compound | MIC (K. pneumoniae A-651; [1]) | MIC (E. coli ATCC25922; [2]) | MIC (P. aeruginosa ATCC27853; [3]) | also measured |
| --- | --- | --- | --- | --- |
| C[C@@](CCn1cnc2cc(C#CC#CC3(O)COC3)ccc2c1=O)(C(=O)NO)S(C)(=O)=O [Example 4, (R)-N-hydroxy-4-(7-((3-hydroxyoxetan-3-yl)buta-1,3-diyn-1-yl)-4-oxoquinazolin-3(4H)-yl)-2-methyl-2-(methylsulfonyl)butanamide] | 4 µg/mL (≈ 8.71 µM) | 4 µg/mL (≈ 8.71 µM) | 4 µg/mL (≈ 8.71 µM) | – |
| C[C@@](CCn1cnc2cc(C#CC#C[C@@H]3C[C@H]3CO)ccc2c1=O)(C(=O)NO)S(C)(=O)=O [Example 5, (R)-N-hydroxy-4-(7-(((1R,2R)-2-(hydroxymethyl)cyclopropyl)buta-1,3-diyn-1-yl)-4-oxoquinazolin-3(4H)-yl)-2-methyl-2-(methylsulfonyl)butanamide] | 0.25 µg/mL (≈ 0.546 µM) | ≤ 0.063 µg/mL | 1 µg/mL (≈ 2.19 µM) | – |
| C[C@@](CCn1cnc2cc(C#CC#CC3(CO)CC3)ccc2c1=O)(C(=O)NO)S(C)(=O)=O [Example 6, (R)-N-hydroxy-4-(7-((1-(hydroxymethyl)cyclopropyl)buta-1,3-diyn-1-yl)-4-oxoquinazolin-3(4H)-yl)-2-methyl-2-(methylsulfonyl)butanamide] | 1 µg/mL (≈ 2.19 µM) | 0.25 µg/mL (≈ 0.546 µM) | 2 µg/mL (≈ 4.37 µM) | – |
| CC(C)(N)C#CC#Cc1ccc2c(=O)n(CC[C@](C)(C(=O)NO)S(C)(=O)=O)cnc2c1 [Example 7, (R)-4-(7-(5-amino-5-methylhexa-1,3-diyn-1-yl)-4-oxoquinazolin-3(4H)-yl)-N-hydroxy-2-methyl-2-(methylsulfonyl)butanamide formate] | – | – | – | MIC (K. pneumoniae A-651; A651, read-out: MIC for K. Pneumoniae A-651): 4 µg/mL; MIC (E. coli ATCC25922; ATCC25922, read-out: MIC for E. coli ATCC25922): 1 µg/mL; MIC (P. aeruginosa ATCC27853; ATCC27853, read-out: MIC for P. aeruginosa ATCC27853): 2 µg/mL |
| C[C@@](CCn1cnc2cc(C#Cc3ccc(CCO)cc3)ccc2c1=O)(C(=O)NO)S(C)(=O)=O [Example 8, (R)-N-hydroxy-4-(7-((4-(2-hydroxyethyl)phenyl)ethynyl)-4-oxoquinazolin-3(4H)-yl)-2-methyl-2-(methylsulfonyl)butanamide] | 0.25 µg/mL (≈ 0.517 µM) | 0.125 µg/mL (≈ 0.259 µM) | 4 µg/mL (≈ 8.27 µM) | – |
| C[C@@](CCn1cnc2cc(C#CC#C[C@H]3C[C@@H]3CO)c(F)cc2c1=O)(C(=O)NO)S(C)(=O)=O [Example 9, (R)-4-(6-fluoro-7-(((1S,2S)-2-(hydroxymethyl)cyclopropyl)buta-1,3-diyn-1-yl)-4-oxoquinazolin-3(4H)-yl)-N-hydroxy-2-methyl-2-(methylsulfonyl)butanamide] | 0.25 µg/mL (≈ 0.526 µM) | 0.125 µg/mL (≈ 0.263 µM) | 1 µg/mL (≈ 2.1 µM) | – |
| C[C@@](CCn1cnc2cc(C#CC#C[C@@H](O)CO)ccc2c1=O)(C(=O)NO)S(C)(=O)=O [Example 10, (R)-4-(7-((R)-5,6-dihydroxyhexa-1,3-diyn-1-yl)-4-oxoquinazolin-3(4H)-yl)-N-hydroxy-2-methyl-2-(methylsulfonyl)butanamide] | 8 µg/mL (≈ 17.9 µM) | 8 µg/mL (≈ 17.9 µM) | 4 µg/mL (≈ 8.94 µM) | – |
| C[C@@](CCn1cnc2cc(C#CC#C[C@@H]3C[C@H]3CO)c(F)cc2c1=O)(C(=O)NO)S(C)(=O)=O [Example 11, (R)-4-(6-fluoro-7-(((1R,2R)-2-(hydroxymethyl)cyclopropyl)buta-1,3-diyn-1-yl)-4-oxoquinazolin-3(4H)-yl)-N-hydroxy-2-methyl-2-(methylsulfonyl)butanamide] | 0.25 µg/mL (≈ 0.526 µM) | ≤ 0.063 µg/mL | 1 µg/mL (≈ 2.1 µM) | – |
| C[C@@](CCn1cnc2cc(C#CC#CC3(CO)CC3)c(F)cc2c1=O)(C(=O)NO)S(C)(=O)=O [Example 12, (R)-4-(6-fluoro-7-((1-(hydroxymethyl)cyclopropyl)buta-1,3-diyn-1-yl)-4-oxoquinazolin-3(4H)-yl)-N-hydroxy-2-methyl-2-(methylsulfonyl)butanamide] | 0.5 µg/mL (≈ 1.05 µM) | 0.25 µg/mL (≈ 0.526 µM) | 2 µg/mL (≈ 4.21 µM) | – |
| C[C@@](CCn1cnc2cc(C#CC#CC34CC(CO)(C3)C4)ccc2c1=O)(C(=O)NO)S(C)(=O)=O [Example 13, (R)-N-hydroxy-4-(7-((3-(hydroxymethyl)bicyclo[1.1.1]pentan-1-yl)buta-1,3-diyn-1-yl)-4-oxoquinazolin-3(4H)-yl)-2-methyl-2-(methylsulfonyl)butanamide] | 0.25 µg/mL (≈ 0.517 µM) | 0.125 µg/mL (≈ 0.259 µM) | 0.5 µg/mL (≈ 1.03 µM) | – |
| C[C@@](CCn1cnc2cc(C#Cc3ccc(OCCO)cc3)ccc2c1=O)(C(=O)NO)S(C)(=O)=O [Example 14, (R)-N-hydroxy-4-(7-((4-(2-hydroxyethoxy)phenyl)ethynyl)-4-oxoquinazolin-3(4H)-yl)-2-methyl-2-(methylsulfonyl)butanamide] | 0.5 µg/mL (≈ 1 µM) | 0.25 µg/mL (≈ 0.5 µM) | 16 µg/mL (≈ 32 µM) | – |
| C[C@@](CCn1cnc2cc(C#CC#C[C@@H]3C[C@@H](O)[C@@H](O)C3)ccc2c1=O)(C(=O)NO)S(C)(=O)=O [Example 15, (R)-4-(7-(((1s,3R,4S)-3,4-dihydroxycyclopentyl)buta-1,3-diyn-1-yl)-4-oxoquinazolin-3(4H)-yl)-N-hydroxy-2-methyl-2-(methylsulfonyl)butanamide] | – | – | – | MIC for K. Pneumoniae A-651 (K. pneumoniae A-651; [4]): 1 µg/mL; MIC for E. coli ATCC25922 (E. coli ATCC25922; quinolone-sensitive strain): 1 µg/mL; MIC for P. aeruginosa ATCC27853 (P. aeruginosa ATCC27853; quinolone-sensitive strain): 2 µg/mL |
| C[C@@](CCn1cnc2cc(C#Cc3ccc(C4(CO)CC4)cc3)ccc2c1=O)(C(=O)NO)S(C)(=O)=O [Example 16, (R)-N-hydroxy-4-(7-((4-(1-(hydroxymethyl)cyclopropyl)phenyl)ethynyl)-4-oxoquinazolin-3(4H)-yl)-2-methyl-2-(methylsulfonyl)butanamide] | 0.25 µg/mL (≈ 0.491 µM) | 0.125 µg/mL (≈ 0.245 µM) | 4 µg/mL (≈ 7.85 µM) | – |
| C[C@@]1(CO)C[C@H]1C#CC#Cc1ccc2c(=O)n(CC[C@](C)(C(=O)NO)S(C)(=O)=O)cnc2c1 [Example 17, (R)-N-hydroxy-4-(7-(((1S,2R)-2-(hydroxymethyl)-2-methylcyclopropyl)buta-1,3-diyn-1-yl)-4-oxoquinazolin-3(4H)-yl)-2-methyl-2-(methylsulfonyl)butanamide] | 0.125 µg/mL (≈ 0.265 µM) | ≤ 0.063 µg/mL | 0.5 µg/mL (≈ 1.06 µM) | – |
| C[C@@](CCn1cnc2cc(C#Cc3ccc([C@@H](O)CO)cc3)ccc2c1=O)(C(=O)NO)S(C)(=O)=O [Example 18, (R)-4-(7-((4((R)-1,2-dihydroxyethyl)phenyl)ethynyl)-4-oxoquinazolin-3(4H)-yl)-N-hydroxy-2-methyl-2-(methylsulfonyl)butanamide] | 2 µg/mL (≈ 4 µM) | 0.5 µg/mL (≈ 1 µM) | 4 µg/mL (≈ 8.01 µM) | – |
| C[C@@]1(C#CC#Cc2ccc3c(=O)n(CC[C@](C)(C(=O)NO)S(C)(=O)=O)cnc3c2)C[C@H]1CO [Example 20, (R)-N-hydroxy-4-(7-(((1R,2R)-2-(hydroxymethyl)-1-methylcyclopropyl)buta-1,3-diyn-1-yl)-4-oxoquinazolin-3(4H)-yl)-2-methyl-2-(methylsulfonyl)butanamide] | 0.5 µg/mL (≈ 1.06 µM) | 0.125 µg/mL (≈ 0.265 µM) | 1 µg/mL (≈ 2.12 µM) | – |
| C[C@@](CCn1cnc2c(F)c(C#CC#C[C@@H]3C[C@H]3CO)ccc2c1=O)(C(=O)NO)S(C)(=O)=O [Example 21, (R)-4-(8-fluoro-7-(((1R,2R)-2-(hydroxymethyl)cyclopropyl)buta-1,3-diyn-1-yl)-4-oxoquinazolin-3(4H)-yl)-N-hydroxy-2-methyl-2-(methylsulfonyl)butanamide] | 0.5 µg/mL (≈ 1.05 µM) | 0.25 µg/mL (≈ 0.526 µM) | 4 µg/mL (≈ 8.41 µM) | – |
| CN(C)CC(=O)OCC1(c2ccc(C#Cc3ccc4c(=O)n(CC[C@](C)(C(=O)NO)S(C)(=O)=O)cnc4c3)cc2)CC1.Cl [Example 22] | – | – | – | MIC for K. Pneumoniae A-651 (K. pneumoniae A-651; [4]): 4 µg/mL; MIC for E. coli ATCC25922 (E. coli ATCC25922; quinolone-sensitive strain): 0.5 µg/mL; MIC for P. aeruginosa ATCC27853 (P. aeruginosa ATCC27853; quinolone-sensitive strain): 16 µg/mL |
| C[C@@](CCn1cnc2c(F)c(C#CC#C[C@H]3C[C@@H]3CO)ccc2c1=O)(C(=O)NO)S(C)(=O)=O [Example 23, (R)-4-(8-fluoro-7-(((1S,2S)-2-(hydroxymethyl)cyclopropyl)buta-1,3-diyn-1-yl)-4-oxoquinazolin-3(4H)-yl)-N-hydroxy-2-methyl-2-(methylsulfonyl)butanamide] | 0.5 µg/mL (≈ 1.05 µM) | 0.5 µg/mL (≈ 1.05 µM) | 4 µg/mL (≈ 8.41 µM) | – |
| C[C@]1(CO)C[C@@H]1C#CC#Cc1ccc2c(=O)n(CC[C@](C)(C(=O)NO)S(C)(=O)=O)cnc2c1 [Example 24, (R)-N-hydroxy-4-(7-(((1R,2S)-2-(hydroxymethyl)-2-methylcyclopropyl)buta-1,3-diyn-1-yl)-4-oxoquinazolin-3(4H)-yl)-2-methyl-2-(methylsulfonyl)butanamide] | 0.25 µg/mL (≈ 0.53 µM) | 0.25 µg/mL (≈ 0.53 µM) | 1 µg/mL (≈ 2.12 µM) | – |
| C[C@@](CCn1cnc2cc(C#CC#CC3(N)CC3)ccc2c1=O)(C(=O)NO)S(C)(=O)=O.O=CO [Example 25, (R)-4-(7-((1-aminocyclopropyl)buta-1,3-diyn-1-yl)-4-oxoquinazolin-3(4H)-yl)-N-hydroxy-2-methyl-2-(methylsulfonyl)butanamide formate] | 0.5 µg/mL | 0.25 µg/mL | 1 µg/mL | – |
